Laboratory results taken from patent US8796260B2, “Imidazobenzazepine CGRP receptor antagonists” (Merck Sharp & Dohme Corp., priority 2008, dated 2014).
pIC50, pKi: −log10 of the molar value. One block for each molecule: values may come before it. Ends that are not written are not given here.

What was measured:
[1] = clinical trials (Olesen et al. 2004); cited from earlier work
[2] = tested on: headache induced by CGRP infusion; conditions: control group (Petersen et al. 2005); cited from earlier work
[3] = tested on: facial blood flow; conditions: marmoset, electrical stimulation of the trigeminal ganglion (Doods et al. 2000); cited from earlier work
[4] = target: T1, CGRP receptors in SK-N-MC cell membranes (Homo sapiens, UniProt O60894+Q16602); experiment: Native receptor binding assay (125I-CGRP, SK-N-MC cell membranes); conditions: 10 pM 125I-CGRP
T1 construct: receptors in SK-N-MC cell membranes; endogenous in cells; host or cells: SK-N-MC cell membranes
T1 sequence (Q16602 23-461): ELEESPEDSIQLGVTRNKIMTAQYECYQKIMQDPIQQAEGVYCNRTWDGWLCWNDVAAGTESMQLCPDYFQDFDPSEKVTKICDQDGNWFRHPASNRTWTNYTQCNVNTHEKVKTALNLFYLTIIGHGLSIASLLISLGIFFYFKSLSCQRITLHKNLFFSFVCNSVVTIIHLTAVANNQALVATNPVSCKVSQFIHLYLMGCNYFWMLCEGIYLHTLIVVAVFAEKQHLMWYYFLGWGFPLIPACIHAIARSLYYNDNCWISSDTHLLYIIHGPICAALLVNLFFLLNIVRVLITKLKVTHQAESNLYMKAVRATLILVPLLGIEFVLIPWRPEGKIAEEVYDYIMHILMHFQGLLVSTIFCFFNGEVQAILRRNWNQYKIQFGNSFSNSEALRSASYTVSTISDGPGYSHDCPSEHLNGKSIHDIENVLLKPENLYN
T1 sequence (O60894 27-148): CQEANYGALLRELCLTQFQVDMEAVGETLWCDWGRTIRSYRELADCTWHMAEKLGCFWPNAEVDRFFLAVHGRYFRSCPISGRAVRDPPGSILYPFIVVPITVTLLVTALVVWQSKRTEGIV
Experimental: NATIVE RECEPTOR BINDING ASSAY: The binding of ^125I-CGRP to receptors in SK-N-MC cell membranes was carried out essentially as described (Edvinsson et al. (2001) Eur. J. Pharmacal. 415, 39-44). Briefly, membranes (25 μg) were incubated in 1 mL of binding buffer [10 mM HEPES, pH 7.4, 5 mM MgCl2 and 0.2% bovine serum albumin (BSA)] containing 10 pM ^125I-CGRP and antagonist. After incubation at room temperature for 3 h, the assay was terminated by filtration through GFB glass fibre filter plates (PerkinElmer) that had been blocked with 0.5% polyethyleneimine for 3 h. The filters were washed three times with ice-cold assay buffer (10 mM HEPES, pH 7.4 and 5 mM MgCl2), then the plates were air dried. Scintillation fluid (50 μL) was added and the radioactivity was counted on a Topeount (Packard Instrument). Data analysis was carried out by using Prism and the Ki was determined by using the Cheng-Prusoff equation (Cheng & Prusoff (1973) Biochem. Pharmacol. 22, 3099-3108).

[5] = target: T2, recombinant human CL receptor/RAMP1 (Homo sapiens, UniProt O60894+Q16602); experiment: Recombinant receptor binding assay (125I-hCGRP); conditions: recombinant human CL receptor/RAMP1 membranes, 10 pM 125I-hCGRP
T2 construct: expressed in transfected cells
T2 sequence (Q16602 23-461): as the sequence (Q16602 23-461) above
T2 sequence (O60894 27-148): as the sequence (O60894 27-148) above
Experimental: (§1) RECOMBINANT RECEPTOR: Human CL receptor (Genbank accession number L76380) was subcloned into the expression vector pIREShyg2 (BD Biosciences Clontech) as a 5′NheI and 3′ PmeI fragment. Human RAMP I (Genbank accession number AJ001014) was subcloned into the expression vector pIRESpuro2 (BD Biosciences Clontech) as a 5′NheI and 3′NotI fragment. HEK 293 cells (human embryonic kidney cells; ATCC #CRL-1573) were cultured in DMEM with 4.5 g/L glucose, 1 mM sodium pyruvate and 2 mM glutamine supplemented with 10% fetal bovine serum (FBS), 100 units/mL penicillin and 100 μg/mL streptomycin, and maintained at 37° C. and 95% humidity. Cells were subcultured by treatment with 0.25% trypsin with 0.1% EDTA in HBSS. Stable cell line generation was accomplished by co-transfecting 10 μg of DNA with 30 μg Lipofectamine 2000 (Invitrogen) in 75 cm^2 flasks. CL receptor and RAMP I expression constructs were co-transfected in equal amounts. Twenty-four hours after transfection the cells were diluted and selective medium (growth medium+300 μg/mL hygromycin and 1 μg/mL puromycin) was added the following day. A clonal cell line was generated by single cell deposition utilizing a FACS Vantage SE (Becton Dickinson). Growth medium was adjusted to 150 μg/mL hygromycin and 0.5 μg/mL puromycin for cell propagation. […]

[6] = target: T2, recombinant human CL receptor/RAMP1; experiment: Recombinant receptor functional assay (cAMP after human α-CGRP stimulation); format: cell-based; conditions: HEK 293 cells, 0.3 nM human α-CGRP
Experimental: as §1, with “amounts.” for “amounts. Twenty-four hours after transfection the cells were diluted and selective medium (growth medium+300 μg/mL hygromycin and 1 μg/mL puromycin) was added the following day. A clonal cell line was generated by single cell deposition utilizing a FACS Vantage SE (Becton Dickinson). Growth medium was adjusted to 150 μg/mL hygromycin and 0.5 μg/mL puromycin for cell propagation.”
RECOMBINANT RECEPTOR FUNCTIONAL ASSAY: Cells were plated in complete growth medium at 85,000 cells/well in 96-well poly-D-lysine coated plates (Corning) and cultured for ˜19 h before assay. […] Dose response curves were plotted and IC50 values determined from a 4-parameter logistic fit as defined by the equation y=((a−d)/(1+(x/c)^b)+d, where y=response, x=dose, a=max response, d=min response, c=inflection point and b=slope.

[7] = tested on: diameter of the middle meningeal artery; conditions: rats, electrical stimulation of the dura mater, prior administration (Williamson et al. 1997); cited from earlier work
[8] = tested on: facial blood flow; conditions: rat, trigeminal ganglion stimulation (Escott et al. 1995); cited from earlier work

Molecule: NCCCC[C@H](NC(=O)[C@@H](Cc1cc(Br)c(O)c(Br)c1)NC(=O)N1CCC(N2Cc3ccccc3NC2=O)CC1)C(=O)N1CCN(c2ccncc2)CC1 [BIBN4096BS]
treating acute attacks of migraine [1]: effective
prevention of headache induced by CGRP infusion [2]: able to prevent headache
effect on increase in facial blood flow [3]: could be blocked

pKi [4]: > 6.00
pKi [5]: > 6.00
pIC50 [6]: > 6.00
Molecule: CC(C)(O)c1cnc2n1Cc1c(cc(Cl)c3[nH]ncc13)C[C@H]2NC(=O)c1ccc2c(c1)CC1(C2)C(=O)Nc2ncccc21 (stereo partly drawn) [Example 4, N-[(7R)-4-chloro-10-(1-hydroxy-1-methylethyl)-3,6,7,12-tetrahydroimidazo[1′,2′:1,7]azepino[3,4-e]indazol-7-yl]-2′-oxo-1,1′,2′,3-tetrahydrospiro[indene-2,3′-pyrrolo[2,3-b]pyridine]-5-carboxamide]

Molecule: CGRP(8-37): a peptide CGRP antagonist; fragment of CGRP that lacks seven N-terminal amino acid residues (VTHRLAGLLSRSGGVVKNNFVPTNVGSKAF; ends and bridges not checked; UniProt P06881 90-119, looked up, fragment)
effect on increased diameter of the middle meningeal artery [7]: blocked
effect on increased facial blood flow [8]: inhibited
